Consider 17 compounds from US20100009970A1, “COMPOSITIONS AND METHODS FOR TREATMENT OF VIRAL DISEASES” (Combinatorx (Singapore) Pte. Ltd., priority 2008, published 2010).

Data set [1] can be described thus: in vitro. To be noted: human.
Data set [2] relates to Huh7 cells expressing a subgenomic RNA replicon of Con1 (genotype 1b) sequence origin. Description: microbe, parasite or virus in culture. To be noted: Hepatitis C virus; for Emax: Huh-7, read-out: Max Effect@CC30 (inhibition).
Where [3] appears, read: Huh-7, read-out: IC50 (uM) [SG].

Structures can show the parent of a compound that is named as a salt. Where two headings read alike, the source gives them in different places.

The IC50 is the midpoint of a concentration-inhibition curve. For `CSc1ccc(Oc2cc(C#N)ccc2CN(C)C)cc1C` [Compound 64, 4-((dimethylamino)methyl)-3-(3-methyl-4-(methylthio)phenoxy)benzonitrile], in data set [1] (CC50 (uM) [SG]), the CC50 was above 50 µM. For the same compound, the IC50 in data set [2] (setting [3]) was found to be 22.5 µM. In data set [1] (CC50 (uM) [SG]), `CN(C)Cc1ccccc1Oc1ccc(Br)cc1` [Compound 55, (2-(4-bromophenoxy)phenyl)-N,N-dimethylmethanamine] had a CC50 above 50 µM. Moreover, in data set [2] (setting [3]), the IC50 was found to be 29.9 µM. Besides, the Emax in data set [2] was found to be 77.2%. The term IC90 denotes the concentration needed for an effect of 90%. Read a high IC90 as a need for much substance. Compound `CSc1ccc(Oc2ccc(S(N)(=O)=O)cc2CN(C)C[C@H](C)O)cc1C` [Compound 71, (S)-3-(((2-hydroxypropyl)(methyl)amino)methyl)-4-(3-methyl-4-(methylthio)phenoxy)benzenesulfonamide] showed a CC50 in data set [1] (CC50 (uM) [SG]) above 50 µM. Further, it took 13.4 µM to reach the 90% level in data set [2] (Huh-7) (IC90). Further, the 50% inhibitory concentration (IC50) in data set [2] (setting [3]) amounted to 4.96 µM.

`Cc1cc(Oc2ccc(S(N)(=O)=O)cc2CN(C)C)ccc1Br` [Compound 61, 4-(4-bromo-3-methylphenoxy)-3-((dimethylamino)methyl)benzenesulfonamide] came in with a CC50 in data set [1] (CC50 (uM) [SG]) above 50 µM. Also, the IC50 in data set [2] (setting [3]) is 12.1 µM. Turning to `CNC(=O)c1cc(S(N)(=O)=O)ccc1Oc1ccc(SC)c(C)c1` [Compound 45, N-methyl-2-(3-methyl-4-(methylthio)phenoxy)-5-sulfamoylbenzamide], the CC50 in data set [1] (CC50 (uM)) is above 50 µM. Also, the Emax in data set [2] was determined as 10.3%.

`CNCc1cc(Br)ccc1Oc1ccc(SC)c(C)c1` [Compound 31, (5-bromo-2-(3-methyl-4-(methylthio)phenoxy)phenyl)-N-methylmethanamine] displayed a CC50 in data set [1] (CC50 (uM) [SG]) of 13.5 µM. The IC50 in data set [2] (setting [3]) amounted to 7.51 µM. In data set [2], the Emax was determined as 18%. Compound `CSc1ccc(Oc2ccc(N(C)C)cc2CN(C)C)cc1C` [Compound 15, 3-((dimethylamino)methyl)-N,N-dimethyl-4-(3-methyl-4-(methylthio)phenoxy)aniline] had a CC50 in data set [1] (CC50 (uM) [SG]) of 38.7 µM. Besides, the IC50 in data set [2] (setting [3]) was found to be 23 µM. Compound `CNc1cc(S(N)(=O)=O)ccc1Oc1ccc(SC)c(C)c1` [Compound 62, 4-(3-methyl-4-(methylthio)phenoxy)-3-(methylamino)benzenesulfonamide] returned a CC50 in data set [1] (CC50 (uM) [SG]) above 50 µM. In turn, `C=C(NC(=O)C(=C)NC(=O)c1csc(C2=N[C@@H]3c4csc(n4)[C@H]4NC(=O)c5csc(n5)[C@H]([C@](C)(O)[C@@H](C)O)NC(=O)[C@H]5CSC(=N5)/C(=C/C)NC(=O)[C@H]([C@@H](C)O)NC(=O)c5csc(n5)[C@]3(CC2)NC(=O)[C@H](C)NC(=O)C(=C)NC(=O)[C@H](C)NC(=O)[C@H]([C@@H](C)CC)N[C@@H]2C=Cc3c([C@H](C)O)cc(nc3[C@H]2O)C(=O)O[C@@H]4C)n1)C(N)=O` [Thiostrepton, reference compound] registered an IC50 in data set [2] (Huh-7) of 3.84 µM.

In data set [2] (Huh-7), `CN(C)CCCN1c2ccccc2CCc2ccccc21` [Imipramine (e.g., hydrochloride), Imipramine, reference compound] came in with an IC50 of 16.9 µM. For `O=C1[C@H]2CCCC[C@H]2C(=O)N1CCCCN1CCN(c2nsc3ccccc23)CC1` [Perospirone, reference compound], half-maximal inhibition in data set [2] (Huh-7) (IC50) was put at 3.6 µM. Same read-out and setting: the figure for `COC(=O)Nc1nc2cc(C(=O)c3ccc(F)cc3)ccc2[nH]1` [Flubendazole, reference compound] is 0.173 µM; for `O=CN/C=C/c1cc(O)ccc1O` [Erbstatin, reference compound] it is 7.63 µM; for `O=c1oc2cc(O)ccc2s1` [Tioxolone, reference compound] it is 16.2 µM. The same measure, in the same setting: then `OC(CCCN1CCCCC1)(c1ccccc1)c1ccccc1` [Diphenidol (e.g., hydrochloride), Diphenidol, reference compound], with 25.4 µM; and `C=C1C[C@@H]2[C@H](CC[C@]3(C)C(=O)CC[C@@H]23)[C@@]2(C)C=CC(=O)C=C12` [Exemestane, reference compound], with 29 µM. Still for that read-out and setting: the figure for `C=C1C(=O)O[C@H]2[C@H]1CC/C(C)=C/CC[C@@]1(C)O[C@@H]21` [Parthenolide, reference compound] is 2.69 µM.
